Laboratory results from patent publication US11053204B2, “Pyrimidinyloxy benzene derivatives as herbicides” (FMC Corporation, priority 2015, dated 2021).

Assays:
Type in all cases: in vivo
[1] = system: galium (catchweed bedstraw, Galium aparine); assay: Test C preemergence, plant response rating
[2] = system: johnsongrass (Sorghum halepense); assay: Test C preemergence, plant response rating
[3] = system: pigweed, palmer (palmer pigweed, Amaranthus palmeri); assay: Test C preemergence, plant response rating
[4] = system: oat, wild (wild oat Avena fatua); assay: Test C preemergence, plant response rating
kochia (Kochia scoparia) = assay: Test C preemergence, plant response rating
[5] = system: surinam grass (Brachiaria decumbens); assay: Test C preemergence, plant response rating
[6] = system: field poppy (Papaver rhoeas); assay: Test C postemergence, plant response rating; settings: for Field Poppy plant response rating: scale 0 to 100 (0 no effect, 100 complete control)
Method in brief: (§1)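 Preemergence: seeds sown in loam–sand blend or silt loam and sprayed with test chemicals in a non-phytotoxic surfactant-containing solvent. Postemergence: potted plants at 2–18 cm (1–4-leaf stage) sprayed with the same formulation. After 13–15 d in greenhouse, visual rating versus controls on 0 (no effect) to 100 (complete control) scale.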

[7] = system: nightshade (eastern black nightshade, Solanum ptycanthum); assay: Test C postemergence, plant response rating; settings: for Nightshade plant response rating: scale 0 to 100 (0 no effect, 100 complete control)
Method in brief: as §1

[8] = system: windgrass (Apera spica-venti); assay: Test C postemergence, plant response rating
Method in brief: as §1

[9] = system: wild mustard (Sinapis arvensis); assay: Test C postemergence, plant response rating
Method in brief: as §1

[10] = system: geranium, cutleaf (cutleaf geranium, Geranium dissectum); assay: Test C postemergence, plant response rating; settings: for Geranium, Cutleaf plant response rating: scale 0 to 100 (0 no effect, 100 complete control)
Method in brief: as §1

[11] = system: pigweed, palmer (palmer pigweed, Amaranthus palmeri); assay: Test C postemergence, plant response rating; settings: for Pigweed, Palmer plant response rating: scale 0 to 100 (0 no effect, 100 complete control)
Method in brief: as §1

[12] = system: wild poinsettia (Euphorbia heterophylla); assay: Test C postemergence, plant response rating; settings: for Poinsettia, Wild plant response rating: scale 0 to 100 (0 no effect, 100 complete control)
Method in brief: as §1

[13] = system: field violet (Viola arvensis); assay: Test C postemergence, plant response rating; settings: for Field Violet plant response rating: scale 0 to 100 (0 no effect, 100 complete control)
Method in brief: as §1

[14] = system: johnsongrass (Sorghum halepense); assay: Test C postemergence, plant response rating; settings: for Johnsongrass plant response rating: scale 0 to 100 (0 no effect, 100 complete control)
Method in brief: as §1

[15] = system: speedwell (bird's-eye speedwell, Veronica persica); assay: Test C postemergence, plant response rating; settings: for Speedwell plant response rating: scale 0 to 100 (0 no effect, 100 complete control)
Method in brief: as §1

[16] = system: buckwheat, wild (wild buckwheat, Polygonum convolvulus); assay: Test C postemergence, plant response rating; settings: for Buckwheat, Wild plant response rating: scale 0 to 100 (0 no effect, 100 complete control)
Method in brief: as §1

[17] = system: surinam grass (Brachiaria decumbens); assay: Test C postemergence, plant response rating
Method in brief: as §1

[18] = system: Canada thistle (Cirsium arvense); assay: Test C postemergence, plant response rating; settings: for Canada Thistle plant response rating: scale 0 to 100 (0 no effect, 100 complete control)
Method in brief: as §1

[19] = system: wild poinsettia (Euphorbia heterophylla); assay: Test C preemergence, plant response rating
[20] = 125 g ai/ha, scale 0 to 100 (0 no effect, 100 complete control)

FC(F)(F)CCCc1c(Br)cccc1Oc1ncc(Cl)cn1 [Compound 89]
0: Plant response rating, Galium ([1]; 31 g ai/ha, scale 0 to 100) | Plant response rating, Galium ([1]; 62 g ai/ha, scale 0 to 100) | Plant response rating, Galium ([1]; 125 g ai/ha, scale of 0 to 100) | Plant response rating, Poinsettia, Wild ([19]; 31 g ai/ha, scale 0 to 100)
50: Geranium, Cutleaf plant response rating ([10]; 62 g ai/ha)
98: Plant response rating, Pigweed, Palmer ([3]; 125 g ai/ha, scale of 0 to 100)
20: Surinam Grass plant response rating [17, 20] | Plant response rating, Poinsettia, Wild ([19]; 62 g ai/ha, scale 0 to 100)
5: Plant response rating, Johnsongrass ([14]; 16 g ai/ha, scale of 0 to 100)
75: Plant response rating, Surinam Grass ([5]; 125 g ai/ha, scale of 0 to 100) | Plant response rating, Nightshade ([7]; 16 g ai/ha, scale of 0 to 100) | Plant response rating, Pigweed, Palmer ([11]; 31 g ai/ha, scale 0 to 100) | Plant response rating, Buckwheat, Wild ([16]; 31 g ai/ha, scale 0 to 100) | Buckwheat, Wild plant response rating ([16]; 62 g ai/ha)
70: Plant response rating, Pigweed, Palmer ([3]; 31 g ai/ha, scale 0 to 100) | Plant response rating, Buckwheat, Wild ([16]; 16 g ai/ha, scale of 0 to 100)
90: Plant response rating, Pigweed, Palmer ([3]; 62 g ai/ha, scale 0 to 100) | Plant response rating, Kochia (kochia (Kochia scoparia); 125 g ai/ha, scale of 0 to 100) | Plant response rating, Field Poppy ([6]; 16 g ai/ha, scale of 0 to 100) | Plant response rating, Nightshade ([7]; 31 g ai/ha, scale 0 to 100) | Poinsettia, Wild plant response rating ([12]; 125 g ai/ha)
30: Plant response rating, Johnsongrass ([2]; 62 g ai/ha, scale 0 to 100) | Plant response rating, Oat, Wild ([4]; 62 g ai/ha, scale 0 to 100)
40: Plant response rating, Johnsongrass ([2]; 31 g ai/ha, scale 0 to 100) | Plant response rating, Poinsettia, Wild ([19]; 125 g ai/ha, scale of 0 to 100)
100: Field Poppy plant response rating ([6]; 62 g ai/ha) | Field Poppy plant response rating ([6]; 125 g ai/ha) | Plant response rating, Mustard, Wild ([9]; 16 g ai/ha, scale of 0 to 100) | Mustard, Wild plant response rating ([9]; 62 g ai/ha, scale 0 to 100 (0 no effect, 100 complete control)) | Plant response rating, Field Violet ([13]; 16 g ai/ha, scale of 0 to 100) | Plant response rating, Field Violet ([13]; 31 g ai/ha, scale 0 to 100) | Field Violet plant response rating ([13]; 62 g ai/ha) | Field Violet plant response rating ([13]; 125 g ai/ha) | Plant response rating, Speedwell ([15]; 31 g ai/ha, scale 0 to 100) | Speedwell plant response rating ([15]; 62 g ai/ha) | Speedwell plant response rating ([15]; 125 g ai/ha)
85: Plant response rating, Kochia (kochia (Kochia scoparia); 62 g ai/ha, scale 0 to 100) | Pigweed, Palmer plant response rating ([11]; 125 g ai/ha) | Johnsongrass plant response rating ([14]; 125 g ai/ha) | Buckwheat, Wild plant response rating ([16]; 125 g ai/ha) | Canada Thistle plant response rating ([18]; 62 g ai/ha) | Canada Thistle plant response rating ([18]; 125 g ai/ha)
35: Plant response rating, Surinam Grass ([5]; 31 g ai/ha, scale 0 to 100) | Windgrass plant response rating [8, 20] | Plant response rating, Geranium, Cutleaf ([10]; 16 g ai/ha, scale of 0 to 100) | Plant response rating, Geranium, Cutleaf ([10]; 31 g ai/ha, scale 0 to 100)
10: Plant response rating, Oat, Wild ([4]; 31 g ai/ha, scale 0 to 100) | Plant response rating, Oat, Wild ([4]; 125 g ai/ha, scale of 0 to 100) | Plant response rating, Windgrass ([8]; 16 g ai/ha, scale of 0 to 100) | Plant response rating, Windgrass ([8]; 31 g ai/ha, scale 0 to 100) | Plant response rating, Johnsongrass ([14]; 31 g ai/ha, scale 0 to 100) | Johnsongrass plant response rating ([14]; 62 g ai/ha) | Plant response rating, Surinam Grass ([17]; 16 g ai/ha, scale of 0 to 100) | Plant response rating, Surinam Grass ([17]; 31 g ai/ha, scale 0 to 100)
80: Pigweed, Palmer plant response rating ([11]; 62 g ai/ha) | Poinsettia, Wild plant response rating ([12]; 62 g ai/ha) | Plant response rating, Canada Thistle ([18]; 16 g ai/ha, scale of 0 to 100) | Plant response rating, Canada Thistle ([18]; 31 g ai/ha, scale 0 to 100)
65: Plant response rating, Surinam Grass ([5]; 62 g ai/ha, scale 0 to 100)
55: Geranium, Cutleaf plant response rating ([10]; 125 g ai/ha) | Plant response rating, Pigweed, Palmer ([11]; 16 g ai/ha, scale of 0 to 100) | Plant response rating, Poinsettia, Wild ([12]; 16 g ai/ha, scale of 0 to 100)
95: Plant response rating, Field Poppy ([6]; 31 g ai/ha, scale 0 to 100) | Nightshade plant response rating ([7]; 62 g ai/ha) | Nightshade plant response rating ([7]; 125 g ai/ha) | Plant response rating, Speedwell ([15]; 16 g ai/ha, scale of 0 to 100)
60: Plant response rating, Johnsongrass ([2]; 125 g ai/ha, scale of 0 to 100) | Plant response rating, Kochia (kochia (Kochia scoparia); 31 g ai/ha, scale 0 to 100) | Plant response rating, Poinsettia, Wild ([12]; 31 g ai/ha, scale 0 to 100)
